Measured values reported in PubChem BioAssay AID330 (DTP/NCI, 2004).
Values joined by “and” are separate entries in the source; they are usually repeats but may differ in a detail not shown here. Identical values can stand only once. Toxic doses and inconclusive results are not listed.

System: P388 leukemia ip, CD2F1 mice, survival T/C
Experiment: NCI In Vivo Anticancer Drug Screen. Data for tumor model P388 Leukemia (intraperitoneal) in CD2F1 (CDF1) mice
Details: endpoint: median survival time, higher = longer survival
Method in brief: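 Mice carrying the transplanted tumor received test compound or vehicle. Survival was recorded in each group, and the value is the treated-group measurement divided by that of the vehicle-treated control group.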

CO[C@H]1C[C@H]2CC[C@@]1(C)C2(C)C
T/C (dose: 60.0 mg/kg/injection, schedule: Q01DX005 (ip), vehicle: saline): 104 % of control
T/C (dose: 120.0 mg/kg/injection, schedule: Q01DX005 (ip), vehicle: saline): 104 % of control
T/C (dose: 240.0 mg/kg/injection, schedule: Q01DX005 (ip), vehicle: saline): 100 % of control

O=C(C[n+]1ccn(CC(OCc2ccc(Cl)cc2Cl)c2ccc(Cl)cc2Cl)c1)c1ccc(F)cc1 (stereo unspecified)
T/C (dose: 3.12 mg/kg/injection, schedule: Q01DX005 (ip), vehicle: saline with Tween-80): 101 % of control
T/C (dose: 6.25 mg/kg/injection, schedule: Q01DX005 (ip), vehicle: saline with Tween-80): 95 % of control
T/C (dose: 12.5 mg/kg/injection, schedule: Q01DX005 (ip), vehicle: saline with Tween-80): 95 % of control

CN(C)c1nc(=O)c2cc(Br)ccc2o1
T/C (dose: 60.0 mg/kg/injection, schedule: Q01DX005 (ip), vehicle: Klucel (hydroxypropylcellulose) (HPC)): 96 % of control
T/C (dose: 120.0 mg/kg/injection, schedule: Q01DX005 (ip), vehicle: Klucel (hydroxypropylcellulose) (HPC)): 100 % of control

CC12CCCN1C(=O)C1(C)CCCN1C2=O (stereo unspecified)
T/C (dose: 100.0 mg/kg/injection, schedule: Q04DX003 (ip), vehicle: saline): 101 % of control
T/C (dose: 200.0 mg/kg/injection, schedule: Q04DX003 (ip), vehicle: saline): 98 % of control
T/C (dose: 400.0 mg/kg/injection, schedule: Q04DX003 (ip), vehicle: saline): 97 % of control

COc1ccc(C(C)N(C)C)cc1 (stereo unspecified)
T/C (dose: 50.0 mg/kg/injection, schedule: Q01DX001 (ip), vehicle: other): 101 % of control
T/C (dose: 100.0 mg/kg/injection, schedule: Q01DX001 (ip), vehicle: other): 99 % of control and 103 % of control
T/C (dose: 200.0 mg/kg/injection, schedule: Q01DX001 (ip), vehicle: other): 98 % of control

COc1cc([C@H]2c3c(cc(OC)c(OC)c3OC)CC3COC(=O)[C@@H]32)cc(Br)c1O (stereo partly specified)
T/C (dose: 60.0 mg/kg/injection, schedule: Q01DX005 (ip), vehicle: saline with Tween-80): 101 % of control
T/C (dose: 120.0 mg/kg/injection, schedule: Q01DX005 (ip), vehicle: saline with Tween-80): 95 % of control
T/C (dose: 240.0 mg/kg/injection, schedule: Q01DX005 (ip), vehicle: saline with Tween-80): 98 % of control

O=C1C=C(C2=CC(=O)c3cccc(O)c3C2=O)C(=O)c2c(O)cccc21
T/C (dose: 6.25 mg/kg/injection, schedule: Q01DX009 (ip), vehicle: Klucel (hydroxypropylcellulose) (HPC)): 115 % of control
T/C (dose: 12.5 mg/kg/injection, schedule: Q01DX009 (ip), vehicle: Klucel (hydroxypropylcellulose) (HPC)): 115 % of control

COc1cccc2c1C(=O)c1c(O)c3c(c(O)c1C2=O)C[C@@](O)(C(=O)COC(=O)Cc1cccc2ccccc12)C[C@@H]3OC1CC(N)C(O)C(C)O1 (stereo partly specified)
T/C (dose: 0.5 mg/kg/injection, schedule: Q01DX009 (ip), vehicle: other): 164 % of control
T/C (dose: 0.5 mg/kg/injection, schedule: Q01DX009 (ip), vehicle: saline with Tween-80): 169 % of control
T/C (dose: 0.5 mg/kg/injection, schedule: Q01DX009 (ip), vehicle: saline): 107 % of control
T/C (dose: 0.78 mg/kg/injection, schedule: Q01DX009 (ip), vehicle: other): 157 % of control
T/C (dose: 1.0 mg/kg/injection, schedule: Q01DX009 (ip), vehicle: other): 156 % of control
T/C (dose: 1.0 mg/kg/injection, schedule: Q01DX009 (ip), vehicle: saline with Tween-80): 183 % of control
T/C (dose: 1.0 mg/kg/injection, schedule: Q01DX009 (ip), vehicle: saline): 121 % of control
T/C (dose: 1.56 mg/kg/injection, schedule: Q01DX009 (ip), vehicle: other): 190 % of control
T/C (dose: 2.0 mg/kg/injection, schedule: Q01DX009 (ip), vehicle: other): 170 % of control
T/C (dose: 2.0 mg/kg/injection, schedule: Q01DX009 (ip), vehicle: saline with Tween-80): 231 % of control
T/C (dose: 2.0 mg/kg/injection, schedule: Q01DX009 (ip), vehicle: saline): 124 % of control
T/C (dose: 3.13 mg/kg/injection, schedule: Q01DX009 (ip), vehicle: other): 245 % of control
T/C (dose: 4.0 mg/kg/injection, schedule: Q01DX009 (ip), vehicle: other): 113 % of control
T/C (dose: 4.0 mg/kg/injection, schedule: Q01DX009 (ip), vehicle: saline with Tween-80): 161 % of control and 277 % of control
T/C (dose: 4.0 mg/kg/injection, schedule: Q01DX009 (ip), vehicle: saline): 122 % of control
T/C (dose: 8.0 mg/kg/injection, schedule: Q01DX009 (ip), vehicle: saline with Tween-80): 100 % of control
T/C (dose: 16.0 mg/kg/injection, schedule: Q01DX009 (ip), vehicle: saline with Tween-80): 99 % of control

c1ccc(N=c2nc(Nc3ccccc3)ss2)cc1
T/C (dose: 50.0 mg/kg/injection, schedule: Q01DX005 (ip), vehicle: saline with Tween-80): 94 % of control
T/C (dose: 100.0 mg/kg/injection, schedule: Q01DX005 (ip), vehicle: saline with Tween-80): 86 % of control
T/C (dose: 200.0 mg/kg/injection, schedule: Q01DX005 (ip), vehicle: saline with Tween-80): 90 % of control

CC1(C)O[C@H]2CC(=O)OC[C@]23[C@H]2CC[C@@]4(C)C(c5ccoc5)OC(=O)[C@H]5O[C@]54[C@]2(C)[C@@H](OC(=O)CCl)C[C@@H]13 (stereo partly specified)
T/C (dose: 0.5 mg/kg/injection, schedule: Q01DX009 (ip), vehicle: saline + alcohol): 113 % of control
T/C (dose: 1.0 mg/kg/injection, schedule: Q01DX009 (ip), vehicle: saline + alcohol): 111 % of control
